In patent publication US9676757B2, “Heterocyclic compounds as NaV channel inhibitors and uses thereof” (Merck Patent GmbH, priority 2014, dated 2017):
Structures can show the parent of a compound that is named as a salt. Where two headings read alike, the source gives them in different places.

Tests used:
Nav1.6 = Nav1.6 (Homo sapiens, UniProt Q9UQD0); test: Nav two-pulse protocol, IonWorks Quattro electrophysiology; type: cell-based; details: -120 mV to 0 mV, compound incubated 300 s
In short: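 Two-pulse protocol on IonWorks Quattro with amphotericin B (200 μg/ml) perforated patch: holding −120 mV, 2.5 s step to 0 mV, 5 ms gap, 20 ms step to 0 mV. Compounds (0.3% DMSO final) incubated 300 s; block taken as Post/Pre peak inward current for each pulse.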

[1] = secondary progressive MS patients; over 2 years; p=0.02; cited from earlier work

Nav1.6, sequence (Q9UQD0 whole entry): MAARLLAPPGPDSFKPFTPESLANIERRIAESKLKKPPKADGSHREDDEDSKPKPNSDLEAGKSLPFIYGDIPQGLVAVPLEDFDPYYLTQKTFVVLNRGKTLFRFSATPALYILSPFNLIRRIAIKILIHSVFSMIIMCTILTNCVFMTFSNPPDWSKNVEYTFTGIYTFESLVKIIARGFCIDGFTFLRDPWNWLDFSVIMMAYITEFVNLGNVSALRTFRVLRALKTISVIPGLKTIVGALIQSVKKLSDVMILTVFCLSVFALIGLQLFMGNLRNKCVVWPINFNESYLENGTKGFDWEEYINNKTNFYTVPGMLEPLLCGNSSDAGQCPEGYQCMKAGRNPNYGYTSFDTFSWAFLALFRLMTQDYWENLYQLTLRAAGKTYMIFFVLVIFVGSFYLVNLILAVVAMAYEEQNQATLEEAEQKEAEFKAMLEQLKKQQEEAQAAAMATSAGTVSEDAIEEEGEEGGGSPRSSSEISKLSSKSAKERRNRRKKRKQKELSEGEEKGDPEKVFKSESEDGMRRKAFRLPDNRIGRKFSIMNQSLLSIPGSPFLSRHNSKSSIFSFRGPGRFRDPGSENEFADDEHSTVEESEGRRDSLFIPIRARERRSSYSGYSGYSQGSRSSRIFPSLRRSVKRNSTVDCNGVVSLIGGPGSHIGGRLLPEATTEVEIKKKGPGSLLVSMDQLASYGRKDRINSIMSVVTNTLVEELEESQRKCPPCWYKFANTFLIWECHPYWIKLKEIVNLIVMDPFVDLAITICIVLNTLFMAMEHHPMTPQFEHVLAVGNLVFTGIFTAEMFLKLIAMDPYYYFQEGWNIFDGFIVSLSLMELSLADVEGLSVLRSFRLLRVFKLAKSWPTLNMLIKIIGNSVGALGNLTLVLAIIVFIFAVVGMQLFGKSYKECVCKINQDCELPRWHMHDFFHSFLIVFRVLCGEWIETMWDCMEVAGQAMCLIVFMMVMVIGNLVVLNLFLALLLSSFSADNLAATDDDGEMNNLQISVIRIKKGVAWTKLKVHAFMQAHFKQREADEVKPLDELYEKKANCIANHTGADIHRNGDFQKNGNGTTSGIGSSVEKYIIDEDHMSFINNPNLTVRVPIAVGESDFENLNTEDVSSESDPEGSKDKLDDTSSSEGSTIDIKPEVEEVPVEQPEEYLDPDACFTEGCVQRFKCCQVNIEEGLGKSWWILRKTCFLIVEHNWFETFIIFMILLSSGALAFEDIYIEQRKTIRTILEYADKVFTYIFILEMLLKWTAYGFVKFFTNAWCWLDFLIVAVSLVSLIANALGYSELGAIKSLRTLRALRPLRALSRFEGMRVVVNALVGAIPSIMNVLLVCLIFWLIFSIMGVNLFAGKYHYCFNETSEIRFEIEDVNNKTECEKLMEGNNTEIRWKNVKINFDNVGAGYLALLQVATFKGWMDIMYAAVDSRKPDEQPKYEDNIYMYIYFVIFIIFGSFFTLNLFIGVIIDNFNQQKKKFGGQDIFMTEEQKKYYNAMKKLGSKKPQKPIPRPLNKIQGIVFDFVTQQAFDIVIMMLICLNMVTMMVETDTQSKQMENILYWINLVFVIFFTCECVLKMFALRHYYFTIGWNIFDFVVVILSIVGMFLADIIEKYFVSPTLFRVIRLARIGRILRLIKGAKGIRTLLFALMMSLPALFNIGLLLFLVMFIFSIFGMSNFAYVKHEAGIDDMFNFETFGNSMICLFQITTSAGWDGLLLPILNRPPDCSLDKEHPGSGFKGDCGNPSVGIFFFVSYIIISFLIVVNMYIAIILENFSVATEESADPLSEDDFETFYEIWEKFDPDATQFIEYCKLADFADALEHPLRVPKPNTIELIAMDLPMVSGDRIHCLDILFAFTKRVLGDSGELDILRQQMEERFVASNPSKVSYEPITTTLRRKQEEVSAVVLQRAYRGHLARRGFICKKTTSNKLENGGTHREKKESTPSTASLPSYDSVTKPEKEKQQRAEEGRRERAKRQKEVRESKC

IC50 (Nav1.6; read-out: Nav1.6 Tonic) [µM]	IC50 (Nav1.6; read-out: Nav1.6 inac) [µM]	SMILES	deterioration of the timed 25-foot walk [1]
> 20	1 to 5	Cn1ccnc1CNC(=O)C1(C)CCN(Cc2cccc(Oc3ccccc3)c2)C1 (centres unmarked) [Compound 101, 3-Methyl-1-(3-phenoxy-benzyl)-pyrrolidine-3-carboxylic acid (1-methyl-1H-imidazol-2-ylmethyl)-amide]	–
> 20	1 to 5	CC1(C(=O)NCc2ccccn2)CCN(Cc2cnc(-c3ccccc3)s2)C1 (centres unmarked) [Compound 102, 3-Methyl-1-(2-phenyl-thiazol-5-ylmethyl)-pyrrolidine-3-carboxylic acid (pyridin-2-ylmethyl)-amide]	–
> 20	> 5	CCC(NC(=O)C1(C)CCN(Cc2cccc(Oc3ccccc3)c2)C1)c1cccnc1 (centres unmarked) [Compound 103, 3-Methyl-1-(3-phenoxy-benzyl)-pyrrolidine-3-carboxylic acid (1-pyridin-3-yl-propyl)-amide]	–
> 20	1 to 5	CN1CCN(C(=O)C2CCN(Cc3cccc(Oc4ccccc4)c3)C2)CC1=O (centres unmarked) [Compound 104, 1-Methyl-4-[1-(3-phenoxy-benzyl)-pyrrolidine-3-carbonyl]-piperazin-2-one]	–
> 20	1 to 5	O=C(NCc1ccccn1)C1CN(Cc2cccc(Oc3ccccc3)c2)CCO1 (centres unmarked) [Compound 105, 4-(3-Phenoxy-benzyl)-morpholine-2-carboxylic acid (pyridin-2-ylmethyl)-amide]	–
> 20	1 to 5	CC1(C(=O)N2Cc3ccncc3C2)CCN(Cc2cccc(Oc3ccccc3)c2)C1 (centres unmarked) [Compound 108, (1,3-Dihydro-pyrrolo[3,4-c]pyridin-2-yl)-[3-methyl-1-(3-phenoxy-benzyl)-pyrrolidin-3-yl]-methanone]	–
10 to 20	< 1	O=C(NCc1ccccn1)C1CCN(Cc2cccc(OC(F)(F)F)c2)C1 (centres unmarked) [Compound 109, 1-(3-Trifluoromethoxy-benzyl)-pyrrolidine-3-carboxylic acid (pyridin-2-ylmethyl)-amide hydrochloride]	–
10 to 20	< 1	CC1(C(=O)NCc2ccccn2)CCCN(Cc2cccc(Oc3ccccc3)c2)C1=O (centres unmarked) [Compound 110, 3-Methyl-2-oxo-1-(3-phenoxy-benzyl)-piperidine-3-carboxylic acid (pyridin-2-ylmethyl)-amide]	–
> 20	1 to 5	Cc1cc(C)nc(CNC(=O)C2CCN(Cc3cccc(S(=O)(=O)N4CCCC4)c3)C2)c1 (centres unmarked) [Compound 111, 1-[3-(Pyrrolidine-1-sulfonyl)-benzyl]-pyrrolidine-3-carboxylic acid (4,6-dimethyl-pyridin-2-ylmethyl)-amide hydrochloride]	–
–	–	Nc1nnc(-c2cccc(Cl)c2Cl)c(N)n1 [Lamotrigine]	reduced the deterioration of the timed 25-foot walk

SMILES	IC50 (Nav1.6; read-out: Nav1.6 Tonic) [µM]	IC50 (Nav1.6; read-out: Nav1.6 inac) [µM]	deterioration of the timed 25-foot walk [1]
O=C(C1CN(Cc2cccc(Oc3ccccc3)c2)CCO1)N1CCOCC1 (centres unmarked) [Compound 106, Morpholin-4-yl-[4-(3-phenoxy-benzyl)-morpholin-2-yl]-methanone]	> 20	> 5	–
COCCNC(=O)C1CN(Cc2cccc(Oc3ccccc3)c2)CCO1 (centres unmarked) [Compound 107, 4-(3-Phenoxy-benzyl)-morpholine-2-carboxylic acid (2-methoxy-ethyl)-amide]	> 20	1 to 5	–
